The source made the active and inactive calls.
Experiments:
[1] = molecular target: T1, Interstitial collagenase (Homo sapiens) (UniProt P03956); assay: Activity at MMP1
T1 sequence (whole entry): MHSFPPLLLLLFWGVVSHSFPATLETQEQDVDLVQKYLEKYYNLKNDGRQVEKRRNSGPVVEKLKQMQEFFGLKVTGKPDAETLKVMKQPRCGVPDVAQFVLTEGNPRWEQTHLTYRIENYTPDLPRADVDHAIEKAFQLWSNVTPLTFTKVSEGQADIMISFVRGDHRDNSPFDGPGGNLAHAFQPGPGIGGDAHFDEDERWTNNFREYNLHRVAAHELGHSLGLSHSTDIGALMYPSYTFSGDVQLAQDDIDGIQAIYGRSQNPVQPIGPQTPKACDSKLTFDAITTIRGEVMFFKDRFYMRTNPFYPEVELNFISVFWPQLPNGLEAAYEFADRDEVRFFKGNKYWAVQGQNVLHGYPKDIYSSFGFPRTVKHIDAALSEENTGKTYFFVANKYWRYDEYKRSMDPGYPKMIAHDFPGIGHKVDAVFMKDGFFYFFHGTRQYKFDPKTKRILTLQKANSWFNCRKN

[2] = molecular target: 72 kDa type IV collagenase (Homo sapiens) (UniProt P08253); assay: Activity at MMP2
[3] = molecular target: T2, Matrilysin (Homo sapiens) (UniProt P09237); assay: Activity at MMP7
T2 sequence (whole entry): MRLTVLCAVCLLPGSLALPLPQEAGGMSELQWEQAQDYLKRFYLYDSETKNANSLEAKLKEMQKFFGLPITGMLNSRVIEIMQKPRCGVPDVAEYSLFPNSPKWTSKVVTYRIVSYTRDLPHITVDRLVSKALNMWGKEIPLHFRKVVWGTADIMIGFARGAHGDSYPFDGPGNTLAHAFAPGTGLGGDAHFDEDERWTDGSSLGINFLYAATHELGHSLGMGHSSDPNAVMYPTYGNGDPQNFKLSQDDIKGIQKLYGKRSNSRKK

Measured: Activity

Chain of 72 kDa type IV collagenase (Homo sapiens) (P08253 110-660 limits assumed): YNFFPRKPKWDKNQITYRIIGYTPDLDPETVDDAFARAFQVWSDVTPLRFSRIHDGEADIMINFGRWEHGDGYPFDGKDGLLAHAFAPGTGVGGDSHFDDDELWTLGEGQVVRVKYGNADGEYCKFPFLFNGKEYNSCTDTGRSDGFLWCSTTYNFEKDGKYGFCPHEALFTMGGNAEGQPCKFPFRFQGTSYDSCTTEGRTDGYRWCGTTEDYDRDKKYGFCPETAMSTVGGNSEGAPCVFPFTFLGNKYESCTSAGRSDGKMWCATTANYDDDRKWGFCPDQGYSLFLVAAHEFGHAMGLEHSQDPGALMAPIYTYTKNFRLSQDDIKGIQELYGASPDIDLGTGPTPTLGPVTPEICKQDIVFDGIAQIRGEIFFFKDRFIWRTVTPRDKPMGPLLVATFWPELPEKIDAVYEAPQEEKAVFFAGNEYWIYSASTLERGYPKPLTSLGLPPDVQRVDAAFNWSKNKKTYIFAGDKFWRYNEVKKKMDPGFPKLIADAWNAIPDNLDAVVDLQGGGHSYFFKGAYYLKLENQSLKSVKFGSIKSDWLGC

CC(C)C[C@H](NC(=O)CN(C(=O)[C@H](CC(C)C)NC(=O)[C@@H]1CCCN1C(=O)OCc1ccccc1)S(=O)(=O)c1ccc(-c2ccccc2)cc1)C(=O)N[C@@H](CCC(=O)O)C(=O)N[C@@H](CCC(=O)O)C(=O)N[C@@H](C)C(N)=O
active: all assays above

— ChEMBL document CHEMBL2203269, “Target-Activated Prodrugs (TAPs) for the Autoregulated Inhibition of MMP12” (ACS Med Chem Lett, 2012)
